{"source": "patent US20240261274A1", "about": "“TREATMENT OF MYC-DRIVEN CANCERS WITH GSPT1 DEGRADERS” (MONTE ROSA THERAPEUTICS, INC., priority 2021, published 2024)", "key": {"[1]": {"test_system": "Human mammary epithelial cells, or HMECs, overexpressing c-Myc in a doxycycline-inducible manner", "assay": "Viability of HMECs with doxycycline-inducible c-Myc overexpression", "type": "cell-based", "conditions": "for induction of cell death: highest concentration tested 30 μM", "source_text": "X-axis represents m concentration of compound 8; y-axis represents viability normalized to DMSO."}, "GSPT1": {"target": "GSPT1 (Homo sapiens, UniProt P15170+Q96SW2)", "sequence (P15170 whole entry)": "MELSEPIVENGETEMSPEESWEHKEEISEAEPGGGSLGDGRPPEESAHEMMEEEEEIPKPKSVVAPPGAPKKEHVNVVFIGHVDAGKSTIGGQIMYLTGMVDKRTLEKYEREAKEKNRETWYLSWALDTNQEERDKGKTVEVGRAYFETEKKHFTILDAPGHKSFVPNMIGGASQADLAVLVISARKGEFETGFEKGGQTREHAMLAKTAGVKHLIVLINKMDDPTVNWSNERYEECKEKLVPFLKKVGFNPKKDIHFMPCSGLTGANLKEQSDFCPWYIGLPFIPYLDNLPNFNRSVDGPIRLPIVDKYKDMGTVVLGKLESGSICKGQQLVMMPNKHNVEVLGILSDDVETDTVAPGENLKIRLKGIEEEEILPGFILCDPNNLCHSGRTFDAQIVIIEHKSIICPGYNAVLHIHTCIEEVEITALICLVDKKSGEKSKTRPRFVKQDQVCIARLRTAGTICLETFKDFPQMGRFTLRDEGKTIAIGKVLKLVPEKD", "sequence (Q96SW2 whole entry)": "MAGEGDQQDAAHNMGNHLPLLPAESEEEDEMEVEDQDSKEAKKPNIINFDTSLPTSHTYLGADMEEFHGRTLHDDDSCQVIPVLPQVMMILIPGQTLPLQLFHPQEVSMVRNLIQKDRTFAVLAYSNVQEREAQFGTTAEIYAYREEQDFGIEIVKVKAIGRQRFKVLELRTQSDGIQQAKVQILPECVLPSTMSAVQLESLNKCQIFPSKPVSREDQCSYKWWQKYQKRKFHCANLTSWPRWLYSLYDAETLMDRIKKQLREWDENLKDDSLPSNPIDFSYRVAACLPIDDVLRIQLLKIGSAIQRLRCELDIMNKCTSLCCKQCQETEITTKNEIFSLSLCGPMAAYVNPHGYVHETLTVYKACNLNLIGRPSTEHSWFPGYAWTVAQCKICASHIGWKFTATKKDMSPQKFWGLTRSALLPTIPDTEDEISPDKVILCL", "sequence (Q16531 whole entry partner)": "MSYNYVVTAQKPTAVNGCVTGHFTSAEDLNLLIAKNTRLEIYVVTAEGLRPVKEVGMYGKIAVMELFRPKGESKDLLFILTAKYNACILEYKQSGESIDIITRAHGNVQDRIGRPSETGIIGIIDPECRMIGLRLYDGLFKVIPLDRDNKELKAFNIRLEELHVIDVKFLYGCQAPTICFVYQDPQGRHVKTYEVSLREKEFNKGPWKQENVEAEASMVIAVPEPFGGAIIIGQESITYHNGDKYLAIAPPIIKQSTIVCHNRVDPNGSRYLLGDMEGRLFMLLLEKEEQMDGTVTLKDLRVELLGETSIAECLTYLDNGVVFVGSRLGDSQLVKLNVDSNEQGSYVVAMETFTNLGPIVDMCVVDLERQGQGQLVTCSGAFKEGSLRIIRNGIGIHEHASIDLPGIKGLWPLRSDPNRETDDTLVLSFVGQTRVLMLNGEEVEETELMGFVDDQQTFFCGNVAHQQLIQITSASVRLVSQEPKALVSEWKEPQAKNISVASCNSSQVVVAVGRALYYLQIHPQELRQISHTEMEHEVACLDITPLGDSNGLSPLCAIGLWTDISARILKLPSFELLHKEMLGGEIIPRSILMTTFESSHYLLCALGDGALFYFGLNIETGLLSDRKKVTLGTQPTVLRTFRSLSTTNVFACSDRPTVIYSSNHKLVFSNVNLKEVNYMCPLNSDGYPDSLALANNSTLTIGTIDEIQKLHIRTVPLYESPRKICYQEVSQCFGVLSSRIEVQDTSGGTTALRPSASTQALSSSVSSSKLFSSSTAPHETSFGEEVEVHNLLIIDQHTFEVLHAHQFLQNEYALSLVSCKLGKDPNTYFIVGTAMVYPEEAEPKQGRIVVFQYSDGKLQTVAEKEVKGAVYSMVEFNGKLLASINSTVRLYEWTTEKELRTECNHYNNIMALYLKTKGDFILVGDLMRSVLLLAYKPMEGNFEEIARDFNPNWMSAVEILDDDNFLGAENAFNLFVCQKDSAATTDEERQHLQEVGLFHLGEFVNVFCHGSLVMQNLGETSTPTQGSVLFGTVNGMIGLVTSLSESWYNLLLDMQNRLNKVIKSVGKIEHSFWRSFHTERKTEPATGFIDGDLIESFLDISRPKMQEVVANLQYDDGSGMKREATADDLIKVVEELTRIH", "assay": "GSPT1 degradation by compound 210 in NSCLC cells", "type": "cell-based", "design": "endogenous in cells", "description": "GSPT1 was degraded by compound 210 after six hours of treatment in high N-Myc NCI-H1155 and ABC-1 cells with a DC50 of 3 nM and 22 nM, respectively (x-axis represents M concentration of compound 210; y-axis represents the viability in %)."}, "[2]": {"test_system": "NCI-H1155 xenograft (human non small cell lung cancer)", "assay": "NCI-H1155 xenograft efficacy study (compound 210)", "type": "in vivo, BALB/c nude mice", "description": "For the NCI-H1155 xenograft study, cells (human non small cell lung cancer, ATCC CRL-5818) were maintained in vitro as suspension culture in ATCC-formulated DMEM:F12 Medium supplemented as recommended by the provider and kept at 37° C. in an atmosphere of 5% CO2 in air. Cells (0.5 million) were resuspended in 0.2 mL of PBS with Matrigel (50:50) and inoculated into female BALB/c nude mice, 6-8 weeks old, and allowed to grow to 150 mm^3 in size. Mice were dosed orally with either vehicle or compound 210 at 1 or 3 mg per kilogram daily (filled squares and filled triangles, respectively) or 6 mg per kilogram for 5 continuous days followed by 9 days treatment holidays (5 On-9 off) (filled inverted triangles). Compound formulations were prepared fresh daily in 5% vDMSO/95% (30% w/v HP-β-CD in water). Gemcitabine dosed at 40 mg per kilogram, IP, Q4D×5 was used as a positive control (filled rhombi). For this study, mice were dosed for 21 days with tumor volumes measured every 3 days."}, "N-Myc": {"test_system": "N-Myc", "assay": "N-Myc total protein levels in NSCLC lines after Compound 345 (western blot)", "type": "cell-based", "conditions": "NSCLC cancer lines; N-Myc not detectable in NCI-H2023", "description": "NCI-H1155 and NCI-H2023 were taken as representative of N-Myc high and low NSCLC. 12A: western blot analysis probing for GSPT1 and N-Myc following treatment with Compound 345 (as indicated). Tubulin was used as a loading control. N-Myc could not be detected by western blotting in the NCI-H2023 line. 12B: Single-sample gene set enrichment analysis (ssGSEA) results for a Myc target gene set at 6 hours (left) and 24 hours (right) after treatment. ssGSEA scores were normalized to DMSOs for each cell line and averaged for three replicates. Error bars denote+/−1 s.d. across replicates."}, "MM1 S cells": {"test_system": "MM1 S cells", "assay": "Apoptosis assay, caspase 3/7 activity in MM1 S cells", "type": "cell-based", "conditions": "0 to 30 μM, 48 hours", "description": "For the same MM cell line, the effect of Compound 345 on apoptosis was evaluated. MM1 S cells were treated with Compound 345 in culture at increasing concentrations ranging from 0 to 30 μM and a control group was treated with lenalidomide, a well-known MM drug. After 48 hours, fold-change caspase 3/7 activity (a marker of apoptosis) was measured and plotted against concentration of Compound 345 compared to lenalidomide as the control. […] For the same MM cell line, the impact of Compound 345 on cell viability was evaluated. MM1 S cells were treated with Compound 345 in culture at increasing concentrations ranging from 0 to 100 μM. Cell viability was measured as a percentage survival after 72 hours.\nApoptosis assay: MM1S cells were sub-cultures as recommended by the providers (ATCC, DSMZ) and incubated at 37° C., 5% CO2. Briefly, cells were seeded in white 96-well plates (100 μL/well) at a density of 50000 cells/well and incubated overnight at 37° C. with 5% CO2. […] Cell apoptosis was assessed using the Caspase-Glo® 3/7 Assay kit as recommended by the manufacturer (Promega, Cat. No. G8091, Lot. No. 0000385738) and measurements were performed on the EnSpire multimode plate reader (Perkin Elmer). EC50 values were determined using Prism8.1.2 (GraphPad) and the asymmetric (five-parameter) equation and least squares fit."}, "NSCLC cell lines": {"test_system": "NSCLC cell lines", "assay": "Viability assay, 72 hr CellTiter Glo, NSCLC cell line panel (Compound 345)", "type": "cell-based", "conditions": "panel of NSCLC cell lines", "description": "EC50 scores for Compound 345 were measured in a panel of NSCLC cell lines. Each cell line was scored for NSCLC biomarkers and EC50 values were plotted against NSCLC biomarker score. Results of this experiment are shown in the scatter plot of FIG. 11A. High N-Myc expressing cell lines were enriched in the lower right quadrant of the scatterplot, indicating high NSCLC biomarker scores and high sensitivity to Compound 345.\nViability assay: Compound 345 was tested in a panel of 156 lung cancer cell lines (including non small cell lung cancer (NSCLC) and small cell lung cancer (SCLC) cell lines and 46 lymphoma cell lines using a 72 hr CellTiter Glo assay format. Cells were sub-cultured as recommended by the providers (ATCC, DSMZ) and incubated at 37° C., 5% CO2. All cells were authenticated and confirmed by Short Tandem Repeat (STR) profiling. Briefly, each lung cancer cell line was preferentially seeded in 384-well plates (100 μL/well) at a density previously determined to be in log growth phase 72 hour post-seeding (typically in the 400-2400 cells/well range). […] Cell viability was assessed using the CellTiter-Glo® 2.0 Assay as recommended by the Manufacturer (Promega, Cat. No. G7558, Lot. No. 0000385738) and measurements performed on the EnSpire multimode plate reader (Perkin Elmer). […]"}}}
{"smiles": "Cc1ccc(NC(=O)NCc2ccc3c(c2)C(=O)N(C2CCC(=O)NC2=O)C3)cc1Cl", "note": "(stereo not drawn) [Compound 8]", "values": [{"measurement": "EC50", "setting": "[1]; Homo sapiens, HMEC, presence of high c-Myc expression, read-out: EC50 of induced cell death (viability normalized to DMSO)", "result": 640, "unit": "nM"}, {"measurement": "induction of cell death", "setting": "[1]; absence of doxycycline-driven c-Myc expression", "result": "did not induce cell death"}, {"measurement": "induction of cell death", "setting": "[1]; after doxycycline was washed out to remove c-Myc expression", "result": "did not induce cell death"}]}
{"smiles": "Cc1ccc(NC(=O)OCc2ccc3c(c2)C(=O)N(C2CCC(=O)NC2=O)C3)cc1Cl", "note": "(stereo not drawn) [Compound 210]", "values": [{"measurement": "relative levels of GSPT1 versus concentration", "setting": "GSPT1", "result": "degrades GSPT1 in a concentration dependent manner"}, {"measurement": "extent of GSPT1 degradation", "setting": "GSPT1; NCI-H1155 and ABC-1 cells", "result": "complete degradation of GSPT1"}, {"measurement": "body weight", "setting": "[2]; oral administration, NCI-H1155 xenograft mice", "result": "no body weight loss observed"}, {"measurement": "tumor growth", "setting": "[2]; oral, 1 mg/kg once daily", "result": "tumor growth was suppressed for two weeks"}, {"measurement": "tumor size", "setting": "[2]; oral, 3 mg/kg once daily", "result": "tumor size decreased, became undetectable by day eight"}, {"measurement": "tumor size", "setting": "[2]; oral, 6 mg/kg five days on and nine days off", "result": "tumor size decreased, became undetectable by day eight"}]}
{"smiles": "O=C1CCC(N2Cc3ccc(COC(=O)Nc4cc(OC(F)(F)F)ccc4F)cc3C2=O)C(=O)N1", "note": "(stereo not drawn) [Compound 345, (2-(2,6-dioxopiperidin-3-yl)-3-oxoisoindolin-5-yl)methyl(2-fluoro-5-(trifluoromethoxy)phenyl)carbamate]", "values": [{"measurement": "N-Myc total protein levels, timecourse", "setting": "N-Myc", "result": "downregulation of N-Myc total protein levels"}, {"measurement": "fold-change caspase 3/7 activity (apoptosis)", "setting": "MM1 S cells", "result": "strong induction of apoptosis"}, {"measurement": "cell viability in Myc-driven and non-Myc-driven NSCLC", "setting": "NSCLC cell lines", "result": "cell viability was significantly reduced in only Myc-driven NSCLC"}]}
